Test results published in US7417069B2, “Halogenated triptolide derivatives as immunomodulators and anticancer agents” (priority 2003, dated 2008).
“Also recorded” adds a separate entry of the source.

Experiments:
[1] = system: Jurkat human T lymphoma cell line; experiment: Annexin V apoptosis assay; format: cell-based; settings: induction of apoptosis in Jurkat cells, 24 hours, relative to triptolide (FIGS. 3A-B)
Description: Test samples were diluted to 1 mM in complete tissue culture medium (RPMI 1640 medium plus 5% heat-inactivated fetal calf serum, 1% HEPES, 1% pen/strep, 1% glutamine). Aliquots were placed in microculture plates and serial dilutions were prepared so that the final concentration would encompass the range of 2 to 6,000 nM with half-log increments. Cells from an exponentially expanding culture of the Jurkat human T lymphoma cell line (#TIB-152 obtained from American Type Culture Collection, Manassas, Va.) were harvested, washed once by centrifugation, re-suspended in complete tissue culture medium, and further diluted to a concentration of 1×10^6 cells/ml. A volume of 100 μl of the cells (1×10^5 cells) was added to wells containing 100 μl of the diluted compounds, and the plates were incubated at 37° C. in a 5% CO2 incubator.
After 24 hours, the plates were centrifuged to pellet the cells, and the cells were washed twice with 2% heat-inactivated fetal calf serum in PBS. […] The contents of the wells were individually transferred into test tubes, and apoptosis was analyzed using a FACSCalibur flow cytometer (BD Immunocytometry Systems, San Jose, Calif.). Cells positive for Annexin V binding were considered to be apoptotic, and the data were calculated as percent apoptotic cells. […]

[2] = system: IL-2 production in Jurkat cells; experiment: IL-2 production assay (immunosuppression assay); format: cell-based, human; settings: for fold less potent than triptolide in the immunosuppression assay: inhibition of IL-2 production in Jurkat cells, relative to triptolide (FIGS. 4A-B)
Description: Test samples were diluted to 1 mM in complete tissue culture medium. Aliquots were placed in microculture plates that had been coated with anti-CD3 antibody (used to stimulate the production of IL-2 by Jurkat cells), and serial dilutions were prepared so that the final concentration would encompass the range of 0.001 to 10,000 nM in log increments. Cells from an exponentially expanding culture of Jurkat human T cell line (#TIB-152 obtained from American Type Culture Collection, Manassas, Va.) were harvested, washed once by centrifugation, re-suspended in complete tissue culture medium, and diluted to a concentration of 2×10^6 cells/ml. A volume of 50 μl of Jurkat cells (1×10^5 cells) was added to wells containing 100 μl of the diluted compounds, 50 μl of PMA (10 ng/ml) was added to each well, and the plates were incubated at 37° C. in a 5% CO2 incubator. After 24 hours, the plates were centrifuged to pellet the cells, 150 μl of supernatant was removed from each well, and the samples were stored at −20° C. The stored supernatants were analyzed for human IL-2 concentration using the Luminex 100 (Luminex Corporation, Austin, Tex.), Luminex microspheres coupled with anti-IL-2 capture antibody, and fluorochrome-coupled anti-IL-2 detection antibody. The data were expressed as pg/ml of IL-2.
The data were plotted as the concentration of compound versus IL-2 concentration. The results for PG763 (14-deoxy-14α-fluorotdptolide), compared with PG490 (triptolide) and a solvent control, are given in FIG. 2. Comparative data for other 14-substituted triptolides, 14α-hydroxytriptolide (also referred to as epitriptolide; designated PG524) and 14β-(methylthio)methyltriptolide (designated PG691), compared with PG490 (triptolide), are given in FIGS. 4A-B.

[3] = system: human T cell lymphoma (Jurkat) cells; experiment: Cytotoxicity (MTT) assay; format: cell-based; settings: 24 h, in comparison with triptolide (FIG. 1)
Description: Test compounds were dissolved in DMSO at a concentration of 20 mM. Further dilutions were done in RPMI 1640 medium (GIBCO, Rockville, Md.) supplemented with 10% Fetal Calf Serum (HyClone Laboratories, Logan, Utah).
Cytotoxicity of the compounds was determined in a standard MTT assay using Cell Proliferation Kit I (#1 465 007, Roche Diagnostics, Mannheim, Germany). Briefly, human T cell lymphoma (Jurkat) cells (4×10^5 per well) were cultured for 24 h, in 96-well tissue culture plates, in the presence of serial three-fold dilutions of test compounds or medium containing the same concentration of DMSO as in the test samples at each dilution point. The cultures were then supplemented with 10 μl/well MTT reagent for 4h and then with 0.1 ml/well solubilizing reagent for an additional 16 h. Optical density at 570 nm (OD570) was measured on a ThermoScan™ microplate reader (Molecular Devices, Menlo Park, Calif.). The data is presented as OD570 values versus concentration of the compounds. The results for PG763 (14-deoxy-14α-fluorotriptolide), compared with PG490 (triptolide) and a medium control, are given in FIG. 1.

SMILES	fold less potent than triptolide in the apoptosis assay [1]	fold less potent than triptolide in the immunosuppression assay [2]	cytotoxicity in Jurkat cells [3]	inhibition of IL-2 production in Jurkat cells ([2]; anti-CD3 and PMA stimulated, 24 hours, in comparison with triptolide (FIG. 2))
CSCOC1C2(C(C)C)OC2C2OC23C2(C)CCC4=C(COC4=O)C2CC2OC213 (stereo not drawn) [14β-(methylthio)methyl triptolide, 14-β-(methylthio)methyl triptolide]	~40 fold	approximately 60 fold	–	–
CC(C)[C@]12O[C@H]1[C@@H]1O[C@]13[C@]1(O[C@H]1C[C@H]1C4=C(CC[C@@]13C)C(=O)OC4)[C@H]2F [PG763, 14-deoxy-14α-fluorotriptolide]	–	–	nearly equivalent to that of triptolide; also recorded: in a dose-dependent manner, at concentrations comparable to those in similar assays using triptolide	nearly equivalent to that of triptolide; also recorded: in a dose-dependent manner, at concentrations comparable to those in similar assay using triptolide
CC(C)[C@]12O[C@H]1[C@@H]1O[C@]13[C@]1(O[C@H]1C[C@H]1C4=C(CC[C@@]13C)C(=O)OC4)[C@H]2O [epitriptolide, 14-α-hydroxytriptolide]	~25 fold	approximately 30 fold	–	–
